This note sets out measurements from patent US20220117920A1, “N-Aryl Benzenesulfonamides as Protonophores for the Treatment of Cancers, Metabolic Diseases and Traumatic Brain Injury” (University of Kentucky Research Foundation, priority 2019, published 2022).

One assay concerns Wnt signaling. As to the kind of experiment: Wnt reporter assay, stable HEK293T cell line containing TOPFlash reporter, LiCl-activated. The assay is classed as cell-based, human. The conditions noted are these: 3 μM. An excerpt: To identify novel Wnt regulators by high throughput screening, a stable HEK293T cell line containing the TOPFlash reporter was established. To identify Wnt inhibitors that targeted molecular events downstream of β-catenin, we treated these cells with lithium chloride to inhibit GSK3 and to stabilize β-catenin. […] We also validated the results by transient transfection of Super 8× TOPFlash or 8× FOPFlash into HEK293T cells. […] Since the results from the stable and transient transfection are compatible, we used stable cell lines for all of the other experiments.
Reporter assay. Wnt reporter assay and cell staining assay have been described previously. We subcloned Super 8×TOPFlash (provided by Professor Randall Moon, University of Washington) into the pGL4.83 [hRlucP/Puro] Vector and transfected it into HEK293T cells. A stable HEK293T cell line containing the TOPFlash reporter was established using puromycin selection. To screen Wnt inhibitors that block the downstream signaling transduction pathway of β-catenin, we treated the reporter cells with 25 mM LiCl to stabilize β-catenin and activate Wnt signaling. The potential Wnt inhibitors identified from screening were validated by transfecting TOPFlash or FOPFlash plus control renilla reporters into HEK293T cells, and then treating the cells with DMSO or testing compounds in DMSO solution. The Wnt signaling was activated by LiCl or Wnt3A treatment.

Another assay concerns DLD-1 cells. The assay can be described thus: Seahorse uncoupling assay (OCR) in DLD-1 cells. The note with it: testing compound 3 μM. In kind it is cell-based, human.
For assay [1], the system named is purified mitochondria from mouse liver. The assay can be described thus: Uncoupling assay (OCR) using purified mitochondria from mouse livers. The assay is classed as biochemical. The note with it: 5 μM/1 μM.
Protocol: All the steps were carried out at 4° C. or on ice. After mice were euthanized with CO2 followed by rapid decapitation, whole liver was quickly dissected out on a cold block and homogenized using a Teflon-glass dounce homogenizer containing isolation buffer (215 mM mannitol, 75 mM sucrose, 0.1% BSA, 20 mM HEPES, 1 mM EGTA, adjusted to pH 7.2 with KOH). The homogenate was transferred to a 2 mL-microcentrifuge tube and spun at 1,300×g for 3 min. The supernatant was transferred to a fresh 2 mL-microcentrifuge tube and spun at 13,000×g for 10 min. The supernatant was discarded, and the crude mitochondrial pellet was resuspended in a 1.5 mL-microcentrifuge tubes and pelleted again at 10,000×g for 10 min. The supernatant was discarded, and the mitochondrial pellets were resuspended in isolation buffer to obtain an approximate concentration ≥10 mg/mL of mitochondria. The absolute protein concentration was determined using a bicinchoninic acid (BCA) protein assay kit (Pierce, Cat #23,227) by recording absorbance at 560 nm on a Biotek Synergy HT plate reader (Winooski, Vt., USA).
Mitochondrial Bioenergetics Measurements. Mitochondrial bioenergetic measurements were carried out using a Seahorse XFe96 Extracellular Flux Analyzer (Agilent Technologies, Santa Clara, Calif., USA) to measure oxygen consumption rate (OCR) during various states of respiration. The OCR were measured in the presence of different substrates, inhibitors and uncouplers of the electron transport chain using previous methods with slight modifications. The stocks used for the assays were 500 mM pyruvate, 250 mM malate, and 30 mM adenosine diphosphate (ADP), and 1 M succinate (pH for all was adjusted to 7.2). […] Stock solutions of FH535, Y3, FH535-M, and Y3-M were prepared at 5 mM in 100% DMSO. As per the instructions from XFe96 Extracellular Flux kit, the sensor cartridge was hydrated with water and kept at 37° C. overnight before the experiment. One hour before the assay was conducted, water was removed from assay plates and XF calibrant was added before re-incubation. The injection ports A to D of the sensor cartridge were loaded with 25 μL of different combinations of the above substrates/inhibitors/uncouplers as follows. Before loading, the stocks were diluted appropriately in the respiration buffer (RB) (125 mM KCl, 0.1% BSA, 20 mM HEPES, 2 mM MgCl2, and 2.5 mM KH2PO4; pH 7.2) to get the final concentrations in the respiration chamber of 5 μM pyruvate, 2.5 μM malate, 10 μM of succinate and 1 μM ADP (via Port A), 1 μM oligomycin A (via Port B), 4 μM FCCP or 5 μM/1 μM FH535 or 5 μM/1 μM Y3 or 5 μM/1 μM FH535-M or 5 μM/1 μM Y3-M (via Port C) and 0.1 μM antimycin A (via Port D) starting with the initial volume of 175 μL RB in the chamber and diluting it to 9×, 10×, 11× and 12× with every injection through ports A to D, respectively. Once loaded, the sensor cartridge was placed into the Seahorse XFe96 Flux Analyzer for automated calibration. Seahorse Standard XFe96 assay plates were used for loading mitochondria. Initially total mitochondria were diluted to 6 μg/30 μL in RB and 30 μL was loaded in each well resulting in 6 μg mitochondria/well. The assay plates were centrifuged at 3,000 rpm for 4 min at 4° C. to adhere liver mitochondria at the bottom of the wells. After centrifugation, 145 μL RB (pre-incubated to 37° C.) was added without disturbing the mitochondrial layer to obtain a final volume of 175 μL per well. […]
In assay [2] the test system is Huh7 cells. As to the kind of experiment: Western blot of autophagy markers LC3II and p62 in Huh7 cells. In kind it is cell-based, human. The text has this: (§1) Primary antibodies are described in Table 1.
On the technique in general: Immunoblotting shows a protein as a band on a membrane.

Assay [3] has as its system Huh7 cells. The assay can be described thus: Cyto-ID autophagy detection assay in Huh7 cells. In kind it is cell-based, human. The note with it: Huh7, 40 h, ±50 μM CQ. The method, then:
Autophagy responses were monitored with the Cyto-ID autophagy detection reagent 2.0 (Enzo Life Sciences, USA) according to the manufacturer's instructions. Huh7 and PLC/PRF/5 cells were seeded in 12-well plates and treated the following day with drugs or DMSO vehicle control at the indicated concentrations. CQ was added to the corresponding wells to a final concentration of 50 μM 8 h prior harvesting. After 40 h of drug treatment, cells were collected and assessed for viability with Zombie Violet dye solution (BioLegend, USA) followed by Cyto-ID autophagy detection reagent staining. Flow cytometry analyses were performed in a BD LSRII at the Flow Cytometry and Cell Sorting Shared Resource Facility of the University of Kentucky Markey Cancer Center and data were analyzed with the FlowJo Software version 7.6.5 (Tree Star, USA). The autophagic flux was quantified by subtracting the Cyto-ID MFI value of the sample without CQ from the Cyto-ID MFI value of the sample with CQ for each condition according to the formula: […]

A further assay has as its system Wnt/β-catenin pathway. The assay can be described thus: TOP-Flash TCF4-dependent dual luciferase reporter assay in Huh7 cells. The assay is classed as cell-based, human. The note with it: Huh7, 10 mM LiCl. The method, then:
Cells were plated at 1×10^5 cells/well in 24-well plates and transiently transfected with 490 ng of luciferase-reporter plasmid and 10 ng of phRL-TK per well using the Turbofect transfection reagent (Thermo Scientific, USA). After 5-6 h post-transfection, cells were treated with drug(s) or DMSO vehicle control for 36 h in the presence or absence of LiCl (10 mM). Luciferase assays were performed using the Dual Luciferase Assay System (Promega, USA) according to manufacturer's instructions.

The subject of assay [4] is Wnt/β-catenin target genes. As to the kind of experiment: Expression of downstream β-catenin targets in Huh7 cells (western blot, RT-qPCR). In kind it is cell-based, human. The conditions noted are these: Huh7, 36 h. The procedure:
as §1
Total RNA was extracted with miRNeasy mini kit (Qiagen, Germany), and the corresponding cDNA was produced using iScript cDNA synthesis kit (BioRad, USA) from 1 μg of total RNA. Real time quantitative PCR (RT-qPCR) was performed using SsoAdvanced Universal SYBR Green supermix (BioRad, USA) with specific primers: p62 (SQSTM1: 5′-[…]-3′ (SEQ ID NO: 1) and 5′-[…]-3′ (SEQ ID NO: 2)); c-MYC (cMYC: 5′-[…]-3′ (SEQ ID NO: 3) and 5′-[…]-3′ (SEQ ID NO: 4)), Survivin (BIRC5, 5′-[…]-3′ (SEQ ID NO: 5) and 5′-[…]-3′ (SEQ ID NO: 6)), AXIN 2 (AXIN2: 5′-[…]-3′ (SEQ ID NO: 7) and 5′-[…]-3′ (SEQ ID NO: 8)), Cyclin D1 (5′-CCND1: […]-3′ (SEQ ID NO: 9) and 5′-[…]-3′ (SEQ ID NO: 10)), and b2-microglobulin (B2M: 5′-[…]-3′ (SEQ ID NO: 11) and 5′-[…]-3′ (SEQ ID NO: 12)). Transcript levels were normalized to β-actin or […] level as indicated using the ΔΔCt method.

Assay [5] concerns Huh7 cells. The assay can be described thus: Seahorse mitochondrial stress test (OCR) in Huh7 cells. The assay is classed as cell-based, human. The note with it: Huh7, 24 h. The method, then:
Oxygen Consumption Rates (OCR) were measured on an XF-96 Extracellular Flux Analyzer (Seahorse Bioscience) using the protocol and conditions optimized for HCC cells as previously described by our group. Briefly, the experiments were performed by seeding 10,000 and 20,000 Huh7 cells per well in XFe 96 well-plates 36 h before the experiment. Cells were treated for 24 h with FH535, FH535-N or vehicle control. In OCR experiments the media was supplemented with 25 mM Glucose and 1 mM Pyruvate just before the assay. After minimal incubation time (˜20-30 min in non-CO2 37° C. incubator) mitochondrial stress test was initiated. […] All reagents used in the Seahorse experiments were purchased from Sigma-Aldrich. Analyses of data were performed with Wave 2.2 software (Seahorse Bioscience), Excel (Microsoft Office 2013) and Prism 7.0 (GraphPad Software).

The structures appear in SMILES notation.

Protocol for DLD-1 cells: Seahorse assay. Approximately 3×10^4 cells were seeded in XF96 Cell Culture microplate (80 μL of 3.75×10^5 cells/mL) for all experiments. On the next day, cell culture media were replaced with either Seahorse XF modified media with 25 mM glucose and 1 mM pyruvate. After media exchange, cells were treated with 1 μM of oligomycin A, 1.0 μM FCCP and mixture of 1.0 μM of rotenone and 1.0 μM of antimycin A in standard mitochondrial stress test conditions. To determine the uncoupler effects, FCCP was replaced with an equal volume of DMSO, or a compound to be tested in DMSO solution. ATP production rate was analyzed using Agilent Seahorse XF Real-Time ATP Rate Assay.

With `Cc1cc([N+](=O)[O-])ccc1NS(=O)(=O)c1cc(Cl)ccc1Cl` [FH535, 2,5-dichloro-N-(2-methyl-4-nitrophenyl)benzenesulfonamide], the “inhibition of Wnt signaling” value in the assay on Wnt signaling is “inhibited Wnt signaling”. In the assay on DLD-1 cells, the “uncoupling: OCR inhibited by oligomycin” value is “increased OCR inhibited by oligomycin”. Also, the “uncoupling: OCR blocked by oligomycin” value in assay [1] is on record as “increased OCR in dose-dependent manner”. For the same molecule, in the assay on Huh7 cells [2] (Huh7, 50 μM CQ 8 h), the “accumulation of LC3II in the presence of CQ (autophagic flux, ΔLC3II)” value is on record as “reduced accumulation of LC3II in the presence of CQ”. Also, in the assay with Huh7 cells [2] (Huh7, 40 h), the LC3II protein levels result is recorded as “increased the lipid-bound expression of LC3II levels in a dose-dependent manner” and the p62 protein levels entry is listed as “increased”. Moreover, the “autophagic flux (Cyto-ID)” value with Huh7 cells [3] is listed as “reduced accumulation of autophagic vesicles”. The “Wnt/β-catenin transcriptional activity (TOP-Flash)” value with Wnt/β-catenin pathway was “target the Wnt/β-catenin signaling pathway”. Also, the “expression of downstream Wnt/β-catenin target genes” value in assay [4] is listed as “reduced expression of endogenous downstream β-catenin target genes”. For the same molecule, the “Proton Leak” value in the assay on Huh7 cells [5] is given as “enhanced Proton Leak”.
